# Source: patent US20220133701A1, “METHODS OF TREATING PAIN” (Yeda Research and Development Co. Ltd., priority 2019, published 2022)
# What was measured:
# Format in all cases: in vivo, mouse
# [1] = test system: importin α3; assay: Importin α3 immunostaining intensity in DRG sections and cultured DRG neurons (line scan / nuclear intensity)
# Description: Histology—Lumbar sections of the spinal cord including Dorsal root ganglia (DRGs) were pre-fixed for 6 minutes before dissection of spinal cord and associated DRGs. Lumbar DRG (L4, unless otherwise indicated) and/or spinal cord were then fixed for six hours in 4% PFA in PBS, washed in PBS and equilibrated in 20% w/v sucrose in PBS prior to serial cryo-sectioning at a thickness of 10-20 μm. Following, one set for each DRG was processed for immunostaining. […]
# Fluorescence Intensity Analysis: Line scan analysis of fluorescence intensity was carried out on high-resolution confocal z-stack from DRG sections to determine fluorescence intensity of c-FOS and importin α3 over cell regions of interest in-vivo. […] The integrated density was calculated as the sum of the values of the pixels in both cytoplasmic and nuclear regions of interest determined on the basis of TuJ-1, CGRP, TRPV1 or DAPI staining, respectively.
# [2] = test system: mice; assay: Open field; details: wild-type mice three weeks after intrathecal AAV9 shRNA (FIG. 5A)
# Description: Motility and anxiety-like behaviors were assayed in the open field (OF) as previously described^8. Mouse activity was tracked and recorded using VideoMot2 (TSE System, Germany). OF was performed under 120 1× for the assessment of anxiety-related behaviors. The OF raw data were further analyzed with COLORcation [Dagan et al. J Neurosci Methods 270, 9 (2016)].
# [3] = test system: SNI mice; assay: Spared nerve injury (SNI) model of neuropathic pain, paw withdrawal threshold (PWT) by Von Frey test; details: SNI mice, viral (AAV9) knockdown followed by SNI, from day 60 onward, vs shCtrl (FIG. 4E)
# Description: Chronic neuropathic pain was assessed using the spared nerve injury (SNI) model^13. Mice were anaesthetized with Ketamine/Xylazine (10 mg/kg body weight, intraperitoneal). The skin on the lateral surface of the thigh was incised and a section was made directly through the biceps femoris muscle in order to expose the sciatic nerve and its three terminal branches: the sural, common peroneal and tibial nerves. The SNI procedure comprised an axotomy and ligation of the tibial and common peroneal nerves leaving the sural nerve intact. The peroneal and the tibial nerves were tight-ligated and sectioned distal to the ligation. […] Following, mice were evaluated over a period of three months.
# Von Frey tests of sensitivity to mechanical stimuli were conducted as previously described [Marvaldi et al. Dev Neurobiol 75, 217 (2015)]. Briefly, mice were placed in acrylic chambers suspended above a wire mesh grid and allowed to habituate to the testing apparatus for one hour prior to experiments. When the mouse was calm, the von Frey filaments were pressed against the plantar surface of the paw until the filament buckled and held for a maximum of 3 seconds. A positive response was noted if the paw was sharply withdrawn on application of the filament. Testing began with filament target force 13.7 milliNewtons and progressed according to an up-down method. 2 gram Von Frey filaments were used to assess sensitivity to noxious mechanical stimulation, scoring mice responses as follows: 0, no response; 1, visible signs of discomfort without leg withdrawal; 2, withdrawal of the leg.
# [4] = test system: mice; assay: Rotarod; details: wild-type mice three weeks after intrathecal AAV9 shRNA (FIG. 5B)
# Description: Rotarod experiments to assess integrity of balance and coordination [Crawley. Neuron 57, 809 (2008)] was carried out using a ROTOR-ROD™ system (83×91×61-SD Instruments, San Diego). Mice were subjected to three trials with 20 minutes inter-trial intervals over three consecutive days, at three weeks and five weeks after AAV9 injection, calculating the daily average each time. Rotarod acceleration was set to 20 rpm in 240 seconds. Latency to fall (sec) was recorded and the average of the three or six consecutive trials was used as an index of motor coordination and balance.
# [5] = listed as anti-importin α3 shRNAs
substance,measurement,setting,value
"shα3: AAV9 expressing an importin α3 targeting shRNA (SEQ ID NO: 8), intrathecal injection (DNA GATCCGGCTTTGACAAACATTGCATGAAGCTTGATGCAATGTTTGTCAAAGCCTTTTTT)",impα3 nuclear intensity in cultured DRG neurons,[1]; cultures of treated animals vs shCtrl (FIGS. 3G-H),significant reduction in nuclear levels
same,"impα3 signal, line scan intensity in DRG sections","[1]; wild type mice one month following intrathecal injection, vs shCtrl (FIG. 3E)",reduction of impα3 signal
same,open field (exploratory behaviour),[2],No deficits were observed in either test
same,open field (exploratory behaviour),[2]; [5],no effect
same,"paw withdrawal threshold (PWT), Von Frey test",[3],recovery
same,"paw withdrawal threshold (PWT), Von Frey test",[3]; listed as anti-importin α3 shRNA,significant recovery of the paw withdrawal reflex
same,rotarod (motor coordination),[4],No deficits were observed in either test
same,rotarod (motor coordination),[4]; [5],no effect
